This note sets out measurements from patent US9346812B2, “Substituted pyrrolopyrimidine compounds, compositions thereof, and methods of treatment therewith” (Signal Pharmaceutical LLC, priority 2013, dated 2016).

This experiment concerns CAL51 cell proliferation. The experiment in a line: Cell Titer Glo Proliferation Assay (CAL51). It is filed as cell-based, human. Particulars: Homo sapiens, CAL-51; CAL51 cell proliferation, 72 h, Cell Titer Glo luminescence; read-out: Act. Level. A digest of the protocol: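 CAL51 triple-negative breast cancer cells in DMEM or RPMI with 10% FBS were treated after overnight culture with serially diluted compound at 0.2% final DMSO. After 72 h, viability was read as CellTiter-Glo luminescence.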
(In general: ATP-based viability assays read luminescence as a measure of living cells.)

On to `CNC(=O)c1ccc(Nc2nc(OC3CCOCC3)c3c(-c4ccnc(O)c4)c[nH]c3n2)c(OC)c1` [Example 147, 4-(5-(2-hydroxypyridin-4-yl)-4-(tetrahydro-2H-pyran-4-yloxy)-7H-pyrrolo[2,3-d]pyrimidin-2-ylamino)-3-methoxy-N-methylbenzamide], for which the IC50 was in the range of 100 to 400 nM.
The figure for `COc1cc(-c2cn[nH]c2)ccc1Nc1nc(OC2CCCC2)c2c(-c3ccc(O)cc3)c[nH]c2n1` [Example 50, 4-(4-(cyclopentyloxy)-2-(2-methoxy-4-(1H-pyrazol-4-yl)phenylamino)-7H-pyrrolo[2,3-d]pyrimidin-5-yl) phenol] is less than 100 nM; for `CNC(=O)c1ccc(Nc2nc(OC3CCCC3)c3c(-c4ccc(C#N)cc4)c[nH]c3n2)c(OC)c1` [Example 77, 4-(5-(4-cyanophenyl)-4-(cyclopentyloxy)-7H-pyrrolo[2,3-d]pyrimidin-2-ylamino)-3-methoxy-N-methylbenzamide] it is 1000 to 10000 nM; for `Cc1nc2ccc(-c3c[nH]c4nc(Nc5ccc(C(=O)N(C)C)cc5C)nc(OC5CCOCC5)c34)cc2o1` [Example 70, N,N,3-trimethyl-4-(5-(2-methylbenzo[d]oxazol-6-yl)-4-(tetrahydro-2H-pyran-4-yloxy)-7H-pyrrolo[2,3-d]pyrimidin-2-ylamino)benzamide] it is 100 to 400 nM.
For `CNC(=O)c1ccc(Nc2nc(OC3CCOCC3)c3c(-c4ccnc(NC(C)=O)c4)c[nH]c3n2)c(OC)c1` [Example 236, 4-(5-(2-acetamidopyridin-4-yl)-4-(tetrahydro-2H-pyran-4-yloxy)-7H-pyrrolo[2,3-d]pyrimidin-2-ylamino)-3-methoxy-N-methylbenzamide] the value was less than 100 nM.
With `CNC(=O)c1ccc(Nc2nc(OC3CCCC3)c3c(-c4ccc(C(C)(C)O)cc4)c[nH]c3n2)c(OC)c1` [Example 49, 4-(4-(cyclopentyloxy)-5-(4-(2-hydroxypropan-2-yl)phenyl)-7H-pyrrolo[2,3-d]pyrimidin-2-ylamino)-3-methoxy-N-methylbenzamide], the IC50 is 100 to 400 nM.
The figure for `CNC(=O)c1ccc(Nc2nc(OC3CCOCC3)c3c(-c4cccc([C@H](C)O)c4)c[nH]c3n2)c(OC)c1` [Example 175, (S)-4-(5-(3-(1-hydroxyethyl)phenyl)-4-(tetrahydro-2H-pyran-4-yloxy)-7H-pyrrolo[2,3-d]pyrimidin-2-ylamino)-3-methoxy-N-methylbenzamide] is 100 to 400 nM; for `CNC(=O)c1ccc(Nc2nc(O[C@H]3CCOC3)c3c(-c4ccc5nc(C)oc5c4)c[nH]c3n2)c(C)c1` [Example 133, (S)-N,3-dimethyl-4-(5-(2-methylbenzo[d]oxazol-6-yl)-4-(tetrahydrofuran-3-yloxy)-7H-pyrrolo[2,3-d]pyrimidin-2-ylamino)benzamide] it is less than 100 nM; for `CNC(=O)c1cccc(-c2c[nH]c3nc(Nc4ccc(C(=O)NC)cc4C)nc(OC)c23)c1` [Example 149, 4-(4-methoxy-5-(3-(methylcarbamoyl)phenyl)-7H-pyrrolo[2,3-d]pyrimidin-2-ylamino)-N,3-dimethylbenzamide] it is 1000 to 10000 nM.
Consider `CNS(=O)(=O)c1ccc(Nc2nc(OC3CCOCC3)c3c(-c4ccc5nc(C)oc5c4)c[nH]c3n2)c(OC)c1` [Example 219, 3-methoxy-N-methyl-4-(5-(2-methylbenzo[d]oxazol-6-yl)-4-(tetrahydro-2H-pyran-4-yloxy)-7H-pyrrolo[2,3-d]pyrimidin-2-ylamino)benzenesulfonamide], for which the IC50 was 100 to 400 nM.
Take `COc1cc(C(=O)NC(C)(C)C)ccc1Nc1nc(OC2CCCC2)c2c(-c3ccc4nc(C)oc4c3)c[nH]c2n1` [Example 224, N-tert-butyl-4-(4-(cyclopentyloxy)-5-(2-methylbenzo[d]oxazol-6-yl)-7H-pyrrolo[2,3-d]pyrimidin-2-ylamino)-3-methoxybenzamide]: the IC50 was in the range of 100 to 400 nM.
As to `CNC(=O)c1ccc(Nc2nc(O[C@H]3CCOC3)c3c(-c4cnn(C)c4)c[nH]c3n2)c(C)c1` [Example 165, (S)-N,3-dimethyl-4-(5-(1-methyl-1H-pyrazol-4-yl)-4-(tetrahydrofuran-3-yloxy)-7H-pyrrolo[2,3-d]pyrimidin-2-ylamino)benzamide], the IC50 was less than 100 nM.
Take `CNC(=O)c1ccc(-c2c[nH]c3nc(Nc4ccc(C(=O)N(C)C)cc4C)nc(OC4CCOCC4)c23)cn1` [Example 159, 5-(2-(4-(dimethylcarbamoyl)-2-methylphenylamino)-4-(tetrahydro-2H-pyran-4-yloxy)-7H-pyrrolo[2,3-d]pyrimidin-5-yl)-N-methylpicolinamide]: the IC50 was less than 100 nM.
In the case of `CNC(=O)c1ccc(Nc2nc(OC)c3c(-c4ccnc(C)c4)c[nH]c3n2)c(OC)c1` [Example 166, 3-methoxy-4-(4-methoxy-5-(2-methylpyridin-4-yl)-7H-pyrrolo [2,3-d]pyrimidin-2-ylamino)-N-methylbenzamide], the IC50 was less than 100 nM.
The figure for `CCOc1ccc(-c2c[nH]c3nc(Nc4ccc(C(=O)NC)cc4OC)nc(OC4CCOCC4)c23)cn1` [Example 102, 4-(5-(6-ethoxypyridin-3-yl)-4-(tetrahydro-2H-pyran-4-yloxy)-7H-pyrrolo[2,3-d]pyrimidin-2-ylamino)-3-methoxy-N-methylbenzamide] is 100 to 400 nM; for `CNC(=O)c1ccc(Nc2nc(OC3CCOCC3)c3c(-c4cn[nH]c4)c[nH]c3n2)c(OC)c1` [Example 122, 4-(5-(1H-pyrazol-4-yl)-4-(tetrahydro-2H-pyran-4-yloxy)-7H-pyrrolo[2,3-d]pyrimidin-2-ylamino)-3-methoxy-N-methylbenzamide] it is less than 100 nM; for `CNC(=O)c1ccc(Nc2nc(OC)c3c(-c4ccc(-c5ncc[nH]5)cc4)c[nH]c3n2)c(OC)c1` [Example 141, 4-(5-(4-(1H-imidazol-2-yl)phenyl)-4-methoxy-7H-pyrrolo[2,3-d]pyrimidin-2-ylamino)-3-methoxy-N-methylbenzamide] it is 100 to 400 nM.
